pIC50: −log10 of the molar value. Where two headings read alike, the source gives them in different places.
Assays:
ZIKV (H/PAN and PRV) = experiment: Plaque assay, ZIKV titer from infected Vero cells; type: cell-based, Zika virus; conditions: for rescue of ZIKV replication from MTX treatment: 50 µM co-treatment with 5 µM MTX, H/PAN and PRV MOI 0.2, Vero cells; for rescue of ZIKV replication from MTX treatment / decrease in ZIKV titer: 48 h PI; for rescue of ZIKV replication during MTX treatment: 5 µM MTX with GAT medium or 0.67 mM glycine, 37.5 µM adenosine, 41.3 µM thymidine, 48 h
ZIKV (H/PAN) [1] = experiment: Plaque assay, ZIKV titer from infected hNSCs; type: cell-based, Zika virus
Vero cells [2] = conditions: for rescue of cell viability during MTX treatment (CTG): 5 µM MTX with GAT medium or 0.67 mM glycine, 37.5 µM adenosine, 41.3 µM thymidine
hNSCs = conditions: hNSCs
Vero cells [3] = conditions: for rescue of cell viability during MTX treatment (CTF): 5 µM MTX with 0.67 mM glycine, 37.5 µM adenosine or 41.3 µM thymidine, uninfected Vero cells
ZIKV = conditions: human brain microvascular endothelial cells; read-out: inhibitory concentration 50 (IC50) against ZIKV; cited from earlier work
[4] = test system: human brain microvascular endothelial cells; conditions: read-out: host cytotoxicity (CC50); cited from earlier work
[5] = human
ZIKV (H/PAN) [6] = experiment: Immunofluorescence imaging of ZIKV envelope protein in infected hNSCs; conditions: Zika virus, read-out: IC50 (µM) Values of MTX, Immunofluorescence
[7] = human, hNSCs
ZIKV (H/PAN) [8] = experiment: Immunofluorescence imaging of ZIKV envelope protein in infected Vero cells
[9] = GAT medium or 37.5 µM adenosine without MTX

Q: Which “rescue of ZIKV replication from MTX treatment” value (ZIKV (H/PAN and PRV)) does the source give for `Nc1nc2c(c(=O)[nH]1)N(C=O)C(CNc1ccc(C(=O)N[C@@H](CCC(=O)O)C(=O)O)cc1)CN2` (stereo partly shown) [leucovorin] here?
A: Its value is “rescued”.

Q: And the “rescue of ZIKV replication during MTX treatment” value (ZIKV (H/PAN) [1]; 50 µM with 5 µM MTX, H/PAN MOI 0.1, hNSCs)?
A: The value was “same rescue effect”.

Q: And the “cell viability, substance alone (CTG)” value (Vero cells [2]; 50 µM leucovorin vs water vehicle, Vero cells)?
A: The value was “No significant difference”.

Q: What about the “rescue of cell viability after MTX treatment (CTG)” value (Vero cells [2]; 50 µM with 5 µM MTX, uninfected Vero cells) of the same molecule?
A: The value was “could rescue”.

Q: What about the “cell viability, substance alone (CTG)” value (hNSCs; 50 µM leucovorin vs water vehicle) of the same molecule?
A: Its value is “No significant difference”.

Q: And the “rescue of cell viability during MTX treatment (CTG)” value (hNSCs; 50 µM with 5 µM MTX)?
A: Its value is “same rescue effect”.

Q: What does the source list for `NCC(=O)O` [glycine]?
A: rescue of cell viability during MTX treatment (CTG) (Vero cells [2]; uninfected Vero cells): could not rescue; rescue of cell viability during MTX treatment (CTF) (Vero cells [3]): could not rescue

Q: With `Nc1nc(=O)c2nc(CNc3ccc(C(=O)N[C@@H](CCC(=O)O)C(=O)O)cc3)cnc2[nH]1` [folic acid] as the molecule, how does the “rescue of ZIKV replication from MTX treatment” value (ZIKV (H/PAN and PRV)) read?
A: Its value is “could not rescue”.

Q: For `Nc1ncnc2c1ncn2[C@@H]1O[C@H](CO)[C@@H](O)[C@H]1O` [adenosine], which “rescue of ZIKV replication during MTX treatment” value (ZIKV (H/PAN and PRV); H/PAN MOI 0.2, Vero cells) is on record?
A: Its value is “rescued”.

Q: And the “rescue of cell viability during MTX treatment (CTG)” value (Vero cells [2]; uninfected Vero cells)?
A: Its value is “could”.

Q: What about the “viability of Vero cells, substance alone (CTG)” value (Vero cells [2]; [9]) of the same molecule?
A: Its value is “did not alter”.

Q: What about the “rescue of cell viability during MTX treatment (CTF)” value (Vero cells [3]) of the same molecule?
A: The value was “could”.

Q: And the “viability of Vero cells, substance alone (CTF)” value (Vero cells [3]; [9])?
A: Its value is “did not alter”.

Q: What does the source list for `CN(Cc1cnc2nc(N)nc(N)c2n1)c1ccc(C(=O)N[C@@H](CCC(=O)O)C(=O)O)cc1` [MTX, methotrexate]?
A: decrease in ZIKV titer (ZIKV (H/PAN and PRV); 5 µM MTX, H/PAN and PRV both MOI 0.2, Vero cells): approximately 10 fold; ZIKV replication at 96 h PI compared to DMSO control (ZIKV (H/PAN and PRV); 5 µM MTX, Vero cells, 96 h PI): resumed; decrease in ZIKV titer (ZIKV (H/PAN and PRV); 6.25 µM MTX, H/PAN MOI 0.2, Vero cells): approximately 10 fold; ZIKV replication in infected hNSCs (ZIKV (H/PAN) [1]; 5 μM MTX, hNSCs): reduced ZIKV replication; pIC50 (ZIKV): 6.55; CC50 [4]: > 10 µM; CC50 [5]: 0.0163 µM; IC50 (ZIKV (H/PAN) [6]): 0.334 µM; CC50 [7]: > 100 µM; ZIKV envelope protein synthesis (ZIKV (H/PAN) [8]; 5 µM MTX, H/PAN MOI 0.2, Vero cells, 48 h PI): reduced; IC50 (ZIKV (H/PAN) [8]; Zika virus, Vero, read-out: IC50 (µM) Values of MTX, Immunofluorescence): 0.245 µM

Q: Which “rescue of ZIKV replication during MTX treatment” value (ZIKV (H/PAN and PRV); H/PAN MOI 0.2, Vero cells) does the source give for `Cc1cn([C@H]2C[C@H](O)[C@@H](CO)O2)c(=O)[nH]c1=O` [thymidine] here?
A: The value was “could not rescue”.

Q: What about the “rescue of cell viability during MTX treatment (CTG)” value (Vero cells [2]; uninfected Vero cells) of the same molecule?
A: Its value is “could not rescue”.

Q: And the “rescue of cell viability during MTX treatment (CTF)” value (Vero cells [3])?
A: The value was “could not rescue”.

— PMC6521145 (Viruses, 2019)
